Test results from US20230085307A1, “PYRIDAZINONE COMPOUND AND HERBICIDE” (NISSAN CHEMICAL CORPORATION, priority 2019, published 2023).

Legend:
wild oat = test: Test Example 4: herbicidal effect by soil treatment (Table 19, symbol I); type: in vivo, wild oat (Avena fatua); settings: for herbicidal effect rating, I: wild oat: 320 g/ha
Summary of the method: (§1)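 Applied as a water-diluted emulsion, the compound was sprayed onto soil covering newly sown seeds. Evaluation came three weeks after application, in a greenhouse held at 25° C. to 30° C.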

velvetleaf = test: Test Example 4: herbicidal effect by soil treatment (Table 19, symbol M); type: in vivo, velvetleaf (Abutilon theophrasti); settings: for herbicidal effect rating, M: velvetleaf: 320 g/ha
Summary of the method: as §1

Japanese bulrush = test: Test Example 2: herbicidal activity, application during weed generation under submerged conditions (Table 17, symbol B); type: in vivo, Japanese bulrush (Schoenoplectus juncoides); settings: AAH 320 g/ha; application during weed generation, submerged conditions
Summary of the method: (§2)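 Steps: fill Wagner pots with alluvial soil; add water to give 4 cm depth; sow the species mixed; grow under glass at 25–30° C.; at 1–2 leaves apply water-diluted emulsion formulation to the water surface at a fixed herbicide amount; score after 3 weeks.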

barnyard grass [1] = test: Test Example 4: herbicidal effect by soil treatment (Table 19, symbol H); type: in vivo, barnyard grass (Echinochloa crus-galli); settings: for herbicidal effect rating, H: barnyard grass: 320 g/ha
Summary of the method: as §1

green foxtail = test: Test Example 4: herbicidal effect by soil treatment (Table 19, symbol G); type: in vivo, green foxtail (Setaria viridis); settings: for herbicidal effect rating, G: green foxtail: 320 g/ha
Summary of the method: as §1

windgrass = test: Test Example 5: herbicidal effect by foliage application, plastic box (Table 20, symbol L); type: in vivo, windgrass (Apera spica-venti); settings: foliage application; for effect on windgrass (L): 320 g/ha, 3 weeks after application
Summary of the method: (§3)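 Sow seeds spot-wise in sterilized diluvial soil; cover with ~1.5 cm soil. Grow 14 days in greenhouse, 25° C. to 30° C. Spray foliage with emulsion diluted to predetermined amount. Rate effect after 3 weeks.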

oval-leafed pondweed = test: Test Example 2: herbicidal activity, application during weed generation under submerged conditions (Table 17, symbol C); type: in vivo, oval-leafed pondweed (Monochoria vaginalis); settings: AAH 320 g/ha; application during weed generation, submerged conditions
Summary of the method: as §2

southern crabgrass = test: Test Example 4: herbicidal effect by soil treatment (Table 19, symbol F); type: in vivo, southern crabgrass (Digitaria ciliaris); settings: for herbicidal effect rating, F: southern crabgrass: 320 g/ha
Summary of the method: as §1

persian speedwell [2] = test: Test Example 5: herbicidal effect by foliage application, plastic box (Table 20, symbol R); type: in vivo, Persian speedwell (Veronica persica); settings: foliage application; for effect on persian speedwell (R): 320 g/ha, 3 weeks after application
Summary of the method: as §3

persian speedwell [3] = test: Test Example 4: herbicidal effect by soil treatment (Table 19, symbol R); type: in vivo, Persian speedwell (Veronica persica); settings: for herbicidal effect rating, R: persian speedwell: 320 g/ha
Summary of the method: as §1

blackgrass = test: Test Example 4: herbicidal effect by soil treatment (Table 19, symbol J); type: in vivo, blackgrass (Alopecurus myosuroides); settings: 320 g/ha
Summary of the method: as §1

barnyard grass [4] = test: Test Example 5: herbicidal effect by foliage application, plastic box (Table 20, symbol H); type: in vivo, barnyard grass (Echinochloa crus-galli); settings: foliage application; for effect on barnyard grass (H): 320 g/ha, 3 weeks after application
Summary of the method: as §3

redroot pigweed [5] = test: Test Example 4: herbicidal effect by soil treatment (Table 19, symbol N); type: in vivo, redroot pigweed (Amaranthus retroflexus); settings: for herbicidal effect rating, N: redroot pigweed: 320 g/ha
Summary of the method: as §1

late watergrass = test: Test Example 2: herbicidal activity, application during weed generation under submerged conditions (Table 17, symbol A); type: in vivo, late watergrass (Echinochloa oryzicola); settings: AAH 320 g/ha; application during weed generation, submerged conditions
Summary of the method: as §2

chickweed = test: Test Example 5: herbicidal effect by foliage application, plastic box (Table 20, symbol P); type: in vivo, common chickweed (Stellaria media); settings: foliage application, AAH 320 g/ha, evaluated three weeks after application
Summary of the method: as §3

redroot pigweed [6] = test: Test Example 5: herbicidal effect by foliage application, plastic box (Table 20, symbol N); type: in vivo, redroot pigweed (Amaranthus retroflexus); settings: foliage application, AAH 320 g/ha, evaluated three weeks after application
Summary of the method: as §3

[7] = amount of applied herbicide 320 g/ha
[8] = AAH 320 g/ha, evaluated three weeks after application

Row | SMILES | herbicidal effect rating, I: wild oat (wild oat) | herbicidal effect rating, M: velvetleaf (velvetleaf) | herbicidal effect rating, B: Japanese bulrush (Japanese bulrush) | herbicidal effect rating, H: barnyard grass (barnyard grass [1]) | herbicidal effect rating, G: green foxtail (green foxtail) | effect on windgrass (L) (windgrass) | herbicidal effect rating, C: oval-leafed pondweed (oval-leafed pondweed) | herbicidal effect rating, F: southern crabgrass (southern crabgrass) | effect on persian speedwell (R) (persian speedwell [2]) | herbicidal effect rating, R: persian speedwell (persian speedwell [3]) | herbicidal effect rating, J: blackgrass (blackgrass) | effect on barnyard grass (H) (barnyard grass [4]) | herbicidal effect rating, N: redroot pigweed (redroot pigweed [5]) | herbicidal effect rating, A: late watergrass (late watergrass) | other results
1 | C=Cc1ccc(-c2sc3ccc(F)cc3c2-c2c(O)c(C)nn(C)c2=O)cc1 [2-018] | 0 (Herbicidal rate of 5% or less (almost no effect)) | 1 (Herbicidal rate of 5% or more and less than 20%) | 2 (Herbicidal rate of 20% or more and less than 40%) | 0 (Herbicidal rate of 5% or less (almost no effect)) | 1 (Herbicidal rate of 5% or more and less than 20%) | 5 (Herbicidal rate of 90% or more (almost completely withered)) | 3 (Herbicidal rate of 40% or more and less than 70%) | 0 (Herbicidal rate of 5% or less (almost no effect)) | 5 (Herbicidal rate of 90% or more (almost completely withered)) | 4 (Herbicidal rate of 70% or more and less than 90%) | 0 (Herbicidal rate of 5% or less (almost no effect)) | 4 (Herbicidal rate of 70% or more and less than 90%) | 4 (Herbicidal rate of 70% or more and less than 90%) | 3 (Herbicidal rate of 40% or more and less than 70%) | –
2 | Cc1nn(C)c(=O)c(-c2c(-c3ccc(OC4CCCC4)cc3)sc3ccc(F)cc23)c1O [2-039] | 0 (Herbicidal rate of 5% or less (almost no effect)) | 0 (Herbicidal rate of 5% or less (almost no effect)) | 0 (Herbicidal rate of 5% or less (almost no effect)) | 0 (Herbicidal rate of 5% or less (almost no effect)) | 0 (Herbicidal rate of 5% or less (almost no effect)) | 5 (Herbicidal rate of 90% or more (almost completely withered)) | 2 (Herbicidal rate of 20% or more and less than 40%) | 0 (Herbicidal rate of 5% or less (almost no effect)) | 5 (Herbicidal rate of 90% or more (almost completely withered)) | 4 (Herbicidal rate of 70% or more and less than 90%) | 0 (Herbicidal rate of 5% or less (almost no effect)) | 5 (Herbicidal rate of 90% or more (almost completely withered)) | 3 (Herbicidal rate of 40% or more and less than 70%) | 0 (Herbicidal rate of 5% or less (almost no effect)) | –
3 | CCCCOc1ccc(-c2sc3ccc(F)cc3c2-c2c(OC(=O)CCC)c(C)nn(C)c2=O)cc1 [2-037] | 0 (Herbicidal rate of 5% or less (almost no effect)) | 4 (Herbicidal rate of 70% or more and less than 90%) | 1 (Herbicidal rate of 5% or more and less than 20%) | 0 (Herbicidal rate of 5% or less (almost no effect)) | 2 (Herbicidal rate of 20% or more and less than 40%) | 0 (Herbicidal rate of 5% or less (almost no effect)) | 3 (Herbicidal rate of 40% or more and less than 70%) | 2 (Herbicidal rate of 20% or more and less than 40%) | 5 (Herbicidal rate of 90% or more (almost completely withered)) | 3 (Herbicidal rate of 40% or more and less than 70%) | 0 (Herbicidal rate of 5% or less (almost no effect)) | 2 (Herbicidal rate of 20% or more and less than 40%) | 5 (Herbicidal rate of 90% or more (almost completely withered)) | 0 (Herbicidal rate of 5% or less (almost no effect)) | –
4 | COCCSCc1ccc(-c2sc3ccc(F)cc3c2-c2c(O)c(C)nn(C)c2=O)cc1 [2-327] | – | – | 2 (Herbicidal rate of 20% or more and less than 40%) | – | – | – | 0 (Herbicidal rate of 5% or less (almost no effect)) | – | – | – | – | – | – | 0 (Herbicidal rate of 5% or less (almost no effect)) | herbicidal effect on I: wild oat (wild oat; [7]): 0 (Herbicidal rate of 5% or less (almost no effect)); herbicidal effect on M: velvetleaf (velvetleaf; [7]): 1 (Herbicidal rate of 5% or more and less than 20%); herbicidal effect on H: barnyard grass (barnyard grass [1]; [7]): 3 (Herbicidal rate of 40% or more and less than 70%); herbicidal effect on G: green foxtail (green foxtail; [7]): 4 (Herbicidal rate of 70% or more and less than 90%); L: windgrass, herbicidal effect (criteria 0-5) (windgrass; [8]): 5 (Herbicidal rate of 90% or more (almost completely withered)); P: chickweed, herbicidal effect (criteria 0-5) (chickweed): 5 (Herbicidal rate of 90% or more (almost completely withered)); herbicidal effect on F: southern crabgrass (southern crabgrass; [7]): 2 (Herbicidal rate of 20% or more and less than 40%); R: persian speedwell, herbicidal effect (criteria 0-5) (persian speedwell [2]; [8]): 5 (Herbicidal rate of 90% or more (almost completely withered)); herbicidal effect on R: persian speedwell (persian speedwell [3]; [7]): 5 (Herbicidal rate of 90% or more (almost completely withered)); H: barnyard grass, herbicidal effect (criteria 0-5) (barnyard grass [4]; [8]): 5 (Herbicidal rate of 90% or more (almost completely withered)); N: redroot pigweed, herbicidal effect (criteria 0-5) (redroot pigweed [6]): 5 (Herbicidal rate of 90% or more (almost completely withered)); herbicidal effect on N: redroot pigweed (redroot pigweed [5]; [7]): 4 (Herbicidal rate of 70% or more and less than 90%)
